Measured values published in ChEMBL document CHEMBL1146257, “2,6-Quinolinyl derivatives as potent VLA-4 antagonists” (Bioorg Med Chem Lett, 2007).
Values after ≈ are worked out from the molar mass of the structure shown.

Assays:
[1] = Inhibition of human recombinant VACM1 binding to VAL4 expressed in U937 cells by adhesion test; assay type: cell-based; settings: u-937
U-937 = experiment: Inhibition of human recombinant VACM1 binding to VAL4 expressed in U937 cells at 1 uM by adhesion test; assay type: cell-based
[2] = Solubility at pH 7.4; assay type: physicochemical; settings: buffer
[3] = Distribution coefficient, log D of the compound; assay type: physicochemical; settings: octanol/water
[4] = Inhibition of fibronectin binding to VAL4 expressed in Jurkat cells by adhesion test; assay type: cell-based, Homo sapiens
[5] = target: Integrin alpha-4/beta-1 (VLA-4) (Homo sapiens); experiment: Inhibition of VCAM binding to integrin alpha4beta1 by human whole blood assay
[6] = Oral bioavailability in dog; assay type: ADME, organism-based, Canis lupus familiaris; settings: in vivo
[7] = Oral bioavailability in monkey; assay type: ADME, organism-based, Macaca mulatta; settings: rhesus monkey, in vivo
[8] = Oral bioavailability in rat; assay type: ADME, organism-based; settings: in vivo
[9] = Inhibition of T cell activation assessed as CD3-VACM interaction; assay type: functional, cell-based, Homo sapiens
[10] = Oral bioavailability in mouse; assay type: ADME, organism-based; settings: in vivo

Row | SMILES | IC50 [1] [nM] | other results
1 | O=C(NC(Cc1ccc2nc(-c3ccccc3C(F)(F)F)ccc2c1)C(=O)O)c1c(Cl)cccc1Cl (stereo not drawn) | 92 | 
2 | O=C(O)C(Cc1ccc2nc(-c3c(Cl)cccc3Cl)ccc2c1)NC(=O)[C@@H]1CCC(=O)N1Cc1ccccc1 (stereo partly drawn) | 15.3 | 
3 | O=C(NC(Cc1ccc2nc(-c3ccccc3)ccc2c1)C(=O)O)c1c(Cl)cccc1Cl (stereo not drawn) |  | inhibition (U-937): 24%
4 | O=C(NC(Cc1ccc2nc(-c3ccncc3)ccc2c1)C(=O)O)c1c(Cl)cccc1Cl (stereo not drawn) | 381 | 
5 | Cc1cc(Cl)c(C(=O)NC(Cc2ccc3nc(-c4c(Cl)cccc4Cl)ccc3c2)C(=O)O)c(Cl)n1 (stereo not drawn) | 7.9 | 
6 | O=C(NC(Cc1ccc2nc(-c3cc(Cl)nc(Cl)c3)ccc2c1)C(=O)O)c1c(Cl)cccc1Cl (stereo not drawn) | 8.6 | 
7 | O=C(NC(Cc1ccc2nc(-c3ccc(Cl)cc3Cl)ccc2c1)C(=O)O)c1c(Cl)cccc1Cl (stereo not drawn) | 748 | 
8 | CS(=O)(=O)c1ccc(C(=O)NC(Cc2ccc3nc(-c4c(Cl)cccc4Cl)ccc3c2)C(=O)O)c(Cl)c1 (stereo not drawn) | 3.5 | 
9 | O=C(NC(Cc1ccc2nc(-c3c(Cl)cccc3Cl)ccc2c1)C(=O)O)c1ccccc1 (stereo not drawn) | 5640 | 
10 | O=C(NC(Cc1ccc2nc(-c3nccs3)ccc2c1)C(=O)O)c1c(Cl)cccc1Cl (stereo not drawn) |  | inhibition (U-937): 38%
11 | O=C(O)C(Cc1ccc2nc(-c3c(Cl)cccc3Cl)ccc2c1)NC(=O)C1(c2ccc(Cl)cc2)CCCC1 (stereo not drawn) | 6.6 | 
12 | COc1ccc2ccccc2c1-c1ccc2cc(CC(NC(=O)c3c(Cl)cccc3Cl)C(=O)O)ccc2n1 (stereo not drawn) | 7.3 | 
13 | CS(=O)(=O)c1ccc(-c2ccc3cc(CC(NC(=O)c4c(Cl)cccc4Cl)C(=O)O)ccc3n2)cc1 (stereo not drawn) |  | inhibition (U-937): 82%
14 | COc1cccc(OC)c1-c1ccc(C[C@H](NC(=O)c2c(Cl)cccc2Cl)C(=O)O)cc1 | 18 | IC50 [9]: 99 nM
15 | O=C(NC(Cc1ccc2nc(-c3cc(C(F)(F)F)ccc3Cl)ccc2c1)C(=O)O)c1c(Cl)cccc1Cl (stereo not drawn) | 208 | 

Further lines, with some results ahead:

Row | IC50 [1] [nM] | SMILES | other results
16 | 6.5 | O=C(NC(Cc1ccc2nc(-c3c(Cl)cccc3[N+](=O)[O-])ccc2c1)C(=O)O)c1c(Cl)cccc1Cl (stereo not drawn) | 
17 | 154 | O=C(NC(Cc1ccc2nc(-c3ccccc3Br)ccc2c1)C(=O)O)c1c(Cl)cccc1Cl (stereo not drawn) | 
18 | 53.7 | COc1cccc(OC)c1C(=O)NC(Cc1ccc2nc(-c3c(Cl)cccc3Cl)ccc2c1)C(=O)O (stereo not drawn) | 
19 | 3.9 | Cc1cccc(Cl)c1C(=O)NC(Cc1ccc2nc(-c3c(Cl)cccc3Cl)ccc2c1)C(=O)O (stereo not drawn) | 
20 | 20 | O=C(NC(Cc1ccc2nc(-c3c(F)cccc3Cl)ccc2c1)C(=O)O)c1c(Cl)cccc1Cl (stereo not drawn) | 
21 | 37.2 | Cc1cccc(C)c1C(=O)NC(Cc1ccc2nc(-c3c(Cl)cccc3Cl)ccc2c1)C(=O)O (stereo not drawn) | 
22 | > 3200 | O=C(N[C@H](Cc1ccc2nc(-c3c(Cl)cccc3Cl)ccc2c1)C(=O)O)c1c(Cl)cccc1Cl | 
23 | 7.8 | O=C(NC(Cc1ccc2nc(-c3c(Cl)cccc3Cl)ccc2c1)C(=O)O)c1c(Cl)cccc1Cl (stereo not drawn) | 
24 | 435 | O=C(NC(Cc1ccc2nc(-c3c(Cl)cccc3Cl)ccc2c1)C(=O)O)c1c(F)cccc1F (stereo not drawn) | 
25 | 372 | O=C(NC(Cc1ccc2nc(-c3c(F)cccc3F)ccc2c1)C(=O)O)c1c(Cl)cccc1Cl (stereo not drawn) | 
26 | 102 | Cc1cccc(C)c1-c1ccc2cc(CC(NC(=O)c3c(Cl)cccc3Cl)C(=O)O)ccc2n1 (stereo not drawn) | 
27 | 3.9 | O=C(N[C@@H](Cc1ccc2nc(-c3c(Cl)cccc3Cl)ccc2c1)C(=O)O)c1c(Cl)cccc1Cl | solubility [2]: 1.5 µg/mL (≈ 2.81 µM); logD [3]: 1.47; IC50 [4]: 1.6 nM; IC50 [5]: 95 nM; bioavailability [6]: 59%; bioavailability [7]: 23%; bioavailability [8]: 41%; IC50 [9]: 43 nM; bioavailability [10]: 35%
28 | 20 | COc1cccc(OC)c1-c1ccc2cc(CC(NC(=O)c3c(Cl)cccc3Cl)C(=O)O)ccc2n1 (stereo not drawn) | 
